Laboratory results as given in article PMC7356968, “Key-Protease Inhibition Regimens Promote Tumor Targeting of Neurotensin Radioligands” (Pharmaceutics, 2020).

System: WiDr cells expressing the human NTS1R
Assay: Cell uptake / internalization assay in WiDr cells
Type: cell-based
Conditions: confluent WiDr cells, 1 h, 37 °C, 250 fmol peptide, non-specific (1 μM NT) subtracted, average ± sd of 3 experiments in triplicate; for internalized fraction vs total added activity: acid wash then lysis
Method: Human colorectal adenocarcinoma WiDr cells (LGC Promochem, Teddington, UK) expressing the human NTS1R [52] were cultured in McCoy’s GLUTAMAX-I (Gibco BRL, Life Technologies, Grand Island, NY, USA) supplemented by 10% (v/v) fetal bovine serum (FBS), 100 U/mL penicillin and 100 μg/mL streptomycin (all from Biochrom KG Seromed, Berlin, Germany). Cells were kept in a controlled humidified atmosphere containing 5% CO2 at 37 °C. Passages were performed every 4–5 days using a trypsin/EDTA (0.05%/0.02% w/v) solution. The overall cell association–internalization of ^99mTc-DT1, ^99mTc-DT5 and ^99mTc-DT6 was assessed in confluent WiDr cells. Briefly, the cells were seeded in six-well plates (~1 × 10^6 cells per well) 24 h before the experiment. Each of ^99mTc-DT1, ^99mTc-DT5 and ^99mTc-DT6 (approximately 150,000 cpm, 250 fmol total peptide in 150 μL of 0.5% BSA/PBS) was added alone (total) or in the presence of 1 μM NT (non-specific). Cells were incubated at 37 °C for 1 h and incubation was interrupted by placing the plates on ice, removing the supernatants and rapid rinsing with ice-cold 0.5% BSA/PBS. Cells were then treated 2 × 5 min with acid wash buffer (2 × 0.6 mL, 50 mM glycine buffer, pH 2.8, 0.1 M NaCl) at room temperature and supernatants were collected (membrane-bound fraction). After rinsing with 1 mL chilled 0.5% BSA/PBS, cells were lyzed by treatment with 1 N NaOH (2 × 0.6 mL) and lysates were collected (internalized fraction). Sample radioactivity was measured in the γ-counter (an automated well-type gamma counter with a NaI(Tl) 3′′ crystal, Canberra Packard Auto-Gamma 5000 series instrument) and total cell-associated (internalized + membrane bound) radioactivity was determined vs. total added activity. Results represent the average values ± sd of 3 experiments in triplicate.

N4-Gly-Arg-Arg-Pro-Tyr-Ile-Leu-OH [^99mTc-DT1, ^99mTc-[N4-Gly^7]NT(7-13), ^99mTc-labeled acyclic tetraamine-coupled NT(7-13) analog DT1]
internalized fraction vs total added activity: 6.9 ± 2.1%
NTS1R-specific cell uptake (internalized + membrane bound) vs total added activity: 10.1 ± 2.3%

N4-βAla-Arg-Dab-Pro-Tyr-Ile-Leu-OH [^99mTc-DT5, ^99mTc-[N4-βAla^7,Dab^9]NT(7-13), ^99mTc-labeled acyclic tetraamine-coupled NT(7-13) analog DT5]
internalized fraction vs total added activity: 3.2 ± 0.3%
NTS1R-specific cell uptake (internalized + membrane bound) vs total added activity: 3.7 ± 0.3%

N4-βAla-Arg-Dab-Pro-Tyr-Tle-Leu-OH [^99mTc-DT6, ^99mTc-[N4-βAla^7,Dab^9,Tle^12]]NT(7-13), ^99mTc-labeled acyclic tetraamine-coupled NT(7-13) analog DT6]
internalized fraction vs total added activity: 0.8 ± 0.4%
NTS1R-specific cell uptake (internalized + membrane bound) vs total added activity: 1.0 ± 0.4%
